From PubChem BioAssay AID330 (DTP/NCI, 2004)
Several values for one entry are separate records, joined by “and”; a condition that tells them apart may be missing. Equal values may be shown once. Toxic doses and inconclusive results are not listed.

System: P388 leukemia ip, CD2F1 mice, survival T/C
Assay: NCI In Vivo Anticancer Drug Screen. Data for tumor model P388 Leukemia (intraperitoneal) in CD2F1 (CDF1) mice
Conditions: endpoint: median survival time, higher = longer survival
In short: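 Mice carrying the transplanted tumor received test compound or vehicle. Survival was recorded in each group, and the value is the treated-group measurement divided by that of the vehicle-treated control group.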

[1] = dose: 50.0 mg/kg/injection, schedule: Q01DX009 (ip), vehicle: saline
[2] = dose: 100.0 mg/kg/injection, schedule: Q01DX009 (ip), vehicle: saline
[3] = dose: 200.0 mg/kg/injection, schedule: Q01DX009 (ip), vehicle: saline
[4] = dose: 50.0 mg/kg/injection, schedule: Q01DX005 (ip), vehicle: Klucel (hydroxypropylcellulose) (HPC)
[5] = dose: 100.0 mg/kg/injection, schedule: Q01DX005 (ip), vehicle: Klucel (hydroxypropylcellulose) (HPC)
[6] = dose: 200.0 mg/kg/injection, schedule: Q01DX005 (ip), vehicle: Klucel (hydroxypropylcellulose) (HPC)
[7] = dose: 60.0 mg/kg/injection, schedule: Q01DX005 (ip), vehicle: Klucel (hydroxypropylcellulose) (HPC)
[8] = dose: 120.0 mg/kg/injection, schedule: Q01DX005 (ip), vehicle: Klucel (hydroxypropylcellulose) (HPC)
[9] = dose: 240.0 mg/kg/injection, schedule: Q01DX005 (ip), vehicle: Klucel (hydroxypropylcellulose) (HPC)
[10] = dose: 50.0 mg/kg/injection, schedule: Q01DX005 (ip), vehicle: saline with Tween-80
[11] = dose: 12.5 mg/kg/injection, schedule: Q01DX009 (ip), vehicle: saline
[12] = dose: 25.0 mg/kg/injection, schedule: Q01DX009 (ip), vehicle: saline
[13] = dose: 100.0 mg/kg/injection, schedule: Q01DX009 (ip), vehicle: saline with Tween-80
[14] = dose: 0.78 mg/kg/injection, schedule: Q01DX009 (ip), vehicle: saline
[15] = dose: 1.56 mg/kg/injection, schedule: Q01DX009 (ip), vehicle: saline
[16] = dose: 100.0 mg/kg/injection, schedule: Q04DX002 (ip), vehicle: saline
[17] = dose: 200.0 mg/kg/injection, schedule: Q04DX002 (ip), vehicle: saline
[18] = dose: 100.0 mg/kg/injection, schedule: Q01DX005 (ip), vehicle: saline with Tween-80
[19] = dose: 200.0 mg/kg/injection, schedule: Q01DX005 (ip), vehicle: saline with Tween-80
[20] = dose: 50.0 mg/kg/injection, schedule: Q01DX009 (ip), vehicle: saline with Tween-80
[21] = dose: 200.0 mg/kg/injection, schedule: Q01DX009 (ip), vehicle: saline with Tween-80
[22] = dose: 50.0 mg/kg/injection, schedule: Q01DX009 (ip), vehicle: Klucel (hydroxypropylcellulose) (HPC)
[23] = dose: 100.0 mg/kg/injection, schedule: Q01DX009 (ip), vehicle: Klucel (hydroxypropylcellulose) (HPC)
[24] = dose: 200.0 mg/kg/injection, schedule: Q01DX009 (ip), vehicle: Klucel (hydroxypropylcellulose) (HPC)

Cc1cc2c(cc1Cl)ncn2C
T/C [1]: 96 % of control
T/C [2]: 112 % of control
T/C [3]: 118 % of control

C[n+]1cccc2c1-c1ccccc1C2=O
T/C (dose: 25.0 mg/kg/injection, schedule: Q01DX005 (ip), vehicle: Klucel (hydroxypropylcellulose) (HPC)): 101 % of control
T/C [4]: 115 % of control
T/C [5]: 101 % of control
T/C [6]: 91 % of control

COC(=O)CC1SC(=S)N(Cc2ccc(Cl)cc2)C1=O (configuration not stated)
T/C [7]: 94 % of control
T/C [8]: 90 % of control
T/C [9]: 90 % of control

CSc1nc(Cl)c(Cl)c(C(F)(F)F)n1
T/C [10]: 103 % of control

C/C(=N\NC(=S)N1CC2CCC(CC2)C1)c1ccccn1
T/C (dose: 1.56 mg/kg/injection, schedule: Q01DX009 (ip), vehicle: Klucel (hydroxypropylcellulose) (HPC)): 101 % of control and 118 % of control
T/C (dose: 3.12 mg/kg/injection, schedule: Q01DX009 (ip), vehicle: Klucel (hydroxypropylcellulose) (HPC)): 107 % of control
T/C (dose: 3.13 mg/kg/injection, schedule: Q01DX009 (ip), vehicle: Klucel (hydroxypropylcellulose) (HPC)): 120 % of control
T/C (dose: 6.25 mg/kg/injection, schedule: Q01DX009 (ip), vehicle: Klucel (hydroxypropylcellulose) (HPC)): 115 % of control and 123 % of control
T/C (dose: 12.5 mg/kg/injection, schedule: Q01DX009 (ip), vehicle: Klucel (hydroxypropylcellulose) (HPC)): 115 % of control

CC1(C)N=C(N)N=C(N)N1c1ccc(OCCNS(=O)(=O)c2cccc(S(=O)(=O)F)c2)c(Cl)c1
T/C [11]: 152 % of control
T/C [12]: 157 % of control
T/C [1]: 168 % of control
T/C [13]: 154 % of control

C1=CC2C3CSCC3C1C1CC21 (configuration not stated)
T/C (dose: 100.0 mg/kg/injection, schedule: Q04DX003 (ip), vehicle: saline): 105 % of control
T/C (dose: 200.0 mg/kg/injection, schedule: Q04DX003 (ip), vehicle: saline): 103 % of control
T/C (dose: 400.0 mg/kg/injection, schedule: Q04DX003 (ip), vehicle: saline): 102 % of control

N#C/C(C(=S)S)=C(/O)c1ccccc1
T/C (dose: 25.0 mg/kg/injection, schedule: Q01DX009 (ip), vehicle: saline sonified): 104 % of control
T/C (dose: 50.0 mg/kg/injection, schedule: Q01DX009 (ip), vehicle: saline sonified): 109 % of control
T/C (dose: 100.0 mg/kg/injection, schedule: Q01DX009 (ip), vehicle: saline sonified): 100 % of control

C/C=C(/C(=O)O)S(=O)(=O)O.[Ag]
T/C (dose: 20.0 mg/kg/injection, schedule: Q01DX009 (ip), vehicle: saline with Tween-80): 103 % of control

CCOc1c(N=Nc2ccccc2[N+](=O)[O-])c(C)nn1C(N)=S
T/C (dose: 15.0 mg/kg/injection, schedule: Q01DX005 (ip), vehicle: Klucel + Tween-80): 100 % of control
T/C (dose: 30.0 mg/kg/injection, schedule: Q01DX005 (ip), vehicle: Klucel + Tween-80): 89 % of control
T/C (dose: 60.0 mg/kg/injection, schedule: Q01DX005 (ip), vehicle: Klucel + Tween-80): 86 % of control and 90 % of control

C=CC[P+](Cc1ccccc1)(c1ccccc1)c1ccccc1
T/C [14]: 107 % of control
T/C [15]: 103 % of control
T/C (dose: 3.13 mg/kg/injection, schedule: Q01DX009 (ip), vehicle: saline): 96 % of control

CC(C)c1cc(C(C)C)c(S(=O)(=O)ON)c(C(C)C)c1
T/C [16]: 112 % of control
T/C [17]: 99 % of control

Cn1cnc2c(F)ncnc21
T/C [4]: 100 % of control
T/C [5]: 101 % of control

CCN(CC)CCCC(C)Nc1ccc2cc(OC)ccc2n1 (configuration not stated)
T/C (dose: 6.25 mg/kg/injection, schedule: Q01DX005 (ip), vehicle: saline): 103 % of control
T/C (dose: 12.5 mg/kg/injection, schedule: Q01DX005 (ip), vehicle: saline): 103 % of control

O=C1C=CC=C2C(=O)C(c3ccccc3)(c3ccccc3)[N+]([O-])=C12
T/C (dose: 50.0 mg/kg/injection, schedule: Q04DX002 (ip), vehicle: saline): 100 % of control
T/C [16]: 98 % of control
T/C [17]: 111 % of control

Cc1ccc(S(=O)(=O)N/N=C/c2cc(I)cc([N+](=O)[O-])c2O)cc1
T/C [10]: 95 % of control
T/C [18]: 101 % of control
T/C [19]: 100 % of control

CCOc1cc2c(Cl)ncnc2c(OCC)c1OCC
T/C [20]: 105 % of control
T/C [13]: 91 % of control
T/C [21]: 106 % of control

O=C(N/N=C/c1c(O)ccc2ccccc12)C(=O)N/N=C/c1c(O)ccc2ccccc12
T/C (dose: 12.5 mg/kg/injection, schedule: Q01DX005 (ip), vehicle: saline with Tween-80): 97 % of control
T/C (dose: 25.0 mg/kg/injection, schedule: Q01DX005 (ip), vehicle: saline with Tween-80): 94 % of control
T/C [10]: 121 % of control
T/C [18]: 186 % of control

Cc1ccc(S(=O)(=O)N/N=C/c2ccccc2)cc1
T/C (dose: 25.0 mg/kg/injection, schedule: Q01DX009 (ip), vehicle: Klucel (hydroxypropylcellulose) (HPC)): 95 % of control
T/C [22]: 94 % of control
T/C [23]: 95 % of control
T/C [24]: 97 % of control
T/C (dose: 400.0 mg/kg/injection, schedule: Q01DX009 (ip), vehicle: Klucel (hydroxypropylcellulose) (HPC)): 109 % of control

N[C@H]1CC[C@@H](C(=O)O)C1
T/C (dose: 50.0 mg/kg/injection, schedule: Q01DX005 (ip), vehicle: saline): 109 % of control
T/C (dose: 100.0 mg/kg/injection, schedule: Q01DX005 (ip), vehicle: saline): 101 % of control
T/C (dose: 200.0 mg/kg/injection, schedule: Q01DX005 (ip), vehicle: saline): 108 % of control

CCC1CN2CCc3cc(OC)c(OC)cc3C2CC1=O (configuration not stated)
T/C [11]: 104 % of control
T/C [12]: 99 % of control
T/C (dose: 37.5 mg/kg/injection, schedule: Q04DX003 (ip), vehicle: saline with Tween-80): 101 % of control
T/C [20]: 107 % of control
T/C [1]: 99 % of control and 103 % of control
T/C (dose: 75.0 mg/kg/injection, schedule: Q04DX003 (ip), vehicle: saline with Tween-80): 121 % of control
T/C [13]: 112 % of control
T/C [2]: 96 % of control and 97 % of control
T/C [21]: 107 % of control
T/C [3]: 106 % of control

Cc1cc(=O)[nH]c(SCC(=O)c2ccccc2)n1
T/C [4]: 102 % of control
T/C [5]: 99 % of control
T/C [6]: 102 % of control

c1ccc2c(SCCCCCSc3c4ccccc4nc4ccccc34)c3ccccc3nc2c1
T/C [7]: 97 % of control
T/C [8]: 89 % of control
T/C [9]: 88 % of control

CC(=O)c1ccccc1NC(=O)COc1ccccc1OCC(=O)Nc1ccccc1C(C)=O
T/C [10]: 100 % of control
T/C [18]: 92 % of control
T/C [19]: 96 % of control

c1ccc2c3cc(cc2c1)OCCOCCOCCOCCOCCOc1ccc2ccccc2c1-3
T/C [20]: 101 % of control
T/C [13]: 101 % of control
T/C [21]: 103 % of control

CC(=O)C1C(=O)C(=O)N(Cc2ccccc2)C1=O (configuration not stated)
T/C [22]: 96 % of control
T/C [23]: 114 % of control
T/C [24]: 100 % of control

CCCCCCCCCCCC[N+]1(CC)CCCCC1
T/C (dose: 0.39 mg/kg/injection, schedule: Q01DX009 (ip), vehicle: saline): 108 % of control
T/C [14]: 109 % of control
T/C [15]: 118 % of control

CC1=C(I)C2(CCCCC2)OC1=O
T/C (dose: 100.0 mg/kg/injection, schedule: Q01DX001 (ip), vehicle: saline with Tween-80): 101 % of control
T/C (dose: 200.0 mg/kg/injection, schedule: Q01DX001 (ip), vehicle: saline with Tween-80): 94 % of control
T/C (dose: 400.0 mg/kg/injection, schedule: Q01DX001 (ip), vehicle: saline with Tween-80): 93 % of control

CC1=C(C(=O)CC(=O)Nc2ccc(Cl)c(Cl)c2)Sc2ccccc2N1
T/C (dose: 60.0 mg/kg/injection, schedule: Q01DX005 (ip), vehicle: saline with Tween-80): 96 % of control
T/C (dose: 120.0 mg/kg/injection, schedule: Q01DX005 (ip), vehicle: saline with Tween-80): 92 % of control
T/C (dose: 240.0 mg/kg/injection, schedule: Q01DX005 (ip), vehicle: saline with Tween-80): 99 % of control

O=c1c2ccccc2ncn1Cc1ccco1
T/C [10]: 98 % of control
T/C [18]: 98 % of control
T/C [19]: 99 % of control
